Experiments:
PANC-1 = test: Cell viability assay (ATP-Lite), PANC-1; assay type: cell-based; conditions: Homo sapiens; PANC-1, 96 hours
Protocol: (§1) All cell lines were cultured in media as recommended by American Type Culture Collection (“ATCC”; supplemented with 10% fetal bovine serum (“FBS”) and 1% penicillin/streptomycin (100 IU/ml pencillin and 100 μg/ml streptomycin) at 37° C. and 5% CO2. The cell lines used in these studies included those indicated in Table II below.
(§2) For cell proliferation assays, 45 μl containing 1000 cells per well were seeded into solid white 384-well plates in appropriate cell growth media containing 10% FBS and incubated overnight at 37° C. and 5% CO2. The following day, test compounds were diluted in serum free growth media to 10× desired concentrations and 5 μl was added to each well. Combined compound and cells were incubated for 96 hours. Following incubation, 40 μl of ATP-Lite solution (PerkinElmer, Inc., Waltham, Massachussetts) was added to each well, incubated for an additional 10 minutes at room temperature and luminescence was measured on an EnVision microplate reader. Percent cell viability for test compounds was calculated by comparing treated wells to appropriate controls (e.g. vehicle treated) included on each plate.
(§3) IC50 values are determined using GraphPad Prism 5 software. The data were entered as an X-Y plot into the software as percent inhibition for each concentration of the drug. The concentration values of the drug were log transformed and the nonlinear regression was carried out using the “sigmoidal dose-response (variable slope)” option within the GraphPad software to model the data and calculate IC50 values.
(§4) The ability of compounds to inhibit the viability of cultured cells was determined using the cell viability assay described above. Activity data for representative compounds is shown below in Table IV for the compounds was tested in the indicated cell lines (PL-45, PANC-1, PSN-1, HepG2, and […]). IC50 values were determined as described above. If IC50 value is indicated as “n.d.”, it means that the compound was […] in the indicated cell line. The compound number corresponds to the numbering used in Table I.

[1] = biological target: T1, recombinant human Axl kinase (catalytic domain, amino acids 473-894) (Homo sapiens, UniProt P30530); test: Axl kinase activity assay (TR-FRET, fluorescein poly-GT substrate); assay type: biochemical; conditions: 20 μM ATP, 93 ng/ml Axl kinase, 60 min; read-out: IC50 (Axl kinase activity)
T1 construct: catalytic domain, amino acids 473-894; purchased Invitrogen Corporation, Carlsbad, Calif
T1 sequence (P30530 473-894): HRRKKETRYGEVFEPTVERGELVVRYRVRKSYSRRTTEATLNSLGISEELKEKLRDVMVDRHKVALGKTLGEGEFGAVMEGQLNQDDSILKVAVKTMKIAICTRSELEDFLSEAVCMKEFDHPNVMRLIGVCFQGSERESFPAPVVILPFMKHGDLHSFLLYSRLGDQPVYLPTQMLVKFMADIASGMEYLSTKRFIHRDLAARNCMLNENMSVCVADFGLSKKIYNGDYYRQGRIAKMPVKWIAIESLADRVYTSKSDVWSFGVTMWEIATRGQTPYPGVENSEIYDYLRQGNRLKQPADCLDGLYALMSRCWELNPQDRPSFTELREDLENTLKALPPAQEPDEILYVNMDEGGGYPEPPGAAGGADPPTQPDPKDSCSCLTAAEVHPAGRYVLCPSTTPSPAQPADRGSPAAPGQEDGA
Protocol: Test compounds were diluted to desired concentrations in kinase reaction buffer (50 mM HEPES pH 7.5, 10 mM MgCl2, 1 mM EGTA, 2 mM DTT, and 0.01% v/v Tween-20) and were briefly incubated with Axl kinase (Invitrogen Corporation, Carlsbad, Calif.). The Axl kinase used was recombinant human Axl kinase (catalytic domain, amino acids 473-894) with a histidine tag. The reaction was initiated by the addition of ATP and fluorescein-labeled poly-GT substrate (poly Glu:Tyr, 4:1 polymer; Invitrogen). Concentration of the various components in the assay (10 μl reaction volume) were: 1% DMSO, 93 ng/ml Axl kinase, 20 μM ATP, and 200 nM fluorescein poly-GT substrate. Following addition of ATP and fluorescein poly-GT substrate, incubation was for 60 min at room temperature, the enzyme reaction is stopped by addition of 10 μl terbium-labeled anti-phosphotyrosine PY20 antibody in EDTA-containing buffer. Final concentration of EDTA and antibody after addition to the reaction is 10 mM and 2 nM, respectively. The terbium conjugated antibody generates a time-resolved FRET signal with the fluorescein molecule (bound to the poly-GT substrate) when the substrate is phosphorylated. After one hour incubation at room temperature, fluorescence was measured with excitation of 320 nm and dual emission of 495 and 520 urn on an EnVision microplate reader (PerkinElmer). Signal is expressed in terms of a TR-FRET ratio (fluorescence intensity at 520 nm to 495 nm).
as §3

PSN-1 = test: Cell viability assay (ATP-Lite), PSN-1; assay type: cell-based; conditions: Homo sapiens, PSN1; PSN-1, 96 hours
Protocol: as §1, §2, §3
The ability of compounds to inhibit the viability of cultured cells was determined using the cell viability assay described above. […] IC50 values were determined as described above. If IC50 value is indicated as “n.d.”, it means that the compound was […] in the indicated cell line. The compound number corresponds to the numbering used in Table I.

PL45 = test: Cell viability assay (ATP-Lite), PL45; assay type: cell-based; conditions: Homo sapiens; PL45, 96 hours
Protocol: as §1, §2, §3, §4

HepG2 = test: Cell viability assay (ATP-Lite), HepG2; assay type: cell-based; conditions: Homo sapiens; HepG2, 96 hours
Protocol: as §1, §2, §3, §4

A549 = test: Cell viability assay (ATP-Lite), A549; assay type: cell-based; conditions: Homo sapiens; A549, 96 hours
Protocol: as §1, §2, §3, §4

SMILES	IC50 (PANC-1) [nM]	IC50 [1] [nM]	IC50 (PSN-1) [nM]	IC50 (PL45) [nM]	IC50 (HepG2) [nM]	IC50 (A549) [nM]
Cc1cnc(Nc2ccc(CN3CCN(C)CC3)cc2)nc1-c1ccc(C(C)(C)C#N)cc1 [Compound 11]	5780	289	2550	8210	–	–
Cc1cnc(Nc2ccc(N(C)C3CCN(C)CC3)cc2)nc1-c1ccc(F)c(Cl)c1 [Compound 12]	10900	416	6710	13700	–	–
CN1CCN(Cc2ccc(Nc3ncc(Cl)c(-c4ccc(F)cc4S(=O)(=O)N4CCCC4)n3)cc2)CC1 [Compound 9]	481	119	192	426	527	77
CN1CCN(Cc2ccc(Nc3ncc(Cl)c(Nc4ccc(F)cc4S(=O)(=O)N4CCCC4)n3)cc2)CC1 [Compound 3]	93	37	9	17	43	4
CN1CCN(Cc2ccc(Nc3ncc(Cl)c(Nc4ccccc4C(=O)N4CCCC4)n3)cc2)CC1 [Compound 6]	96	61	21	14	194	7
CN1CCN(Cc2ccc(Nc3ncc(Cl)c(Nc4ccccc4C(=O)NC4CC4)n3)cc2)CC1 [Compound 2]	303	32	64	3	303	3
Cc1cnc(Nc2ccc(CN3CCN(C)CC3)cc2)nc1-c1cccc(Cl)c1 [Compound 13]	7600	445	2660	4820	–	–
CN1CCC(N(C)c2ccc(Nc3ncc(Cl)c(Nc4ccccc4S(=O)(=O)N(C)C)n3)cc2)CC1 [Compound 5]	80	56	–	370	–	–
CN1CCN(Cc2ccc(Nc3ncc(Cl)c(Nc4ccccc4S(=O)(=O)N(C)C)n3)cc2)CC1 [Compound 4]	38	–	–	48	6	8
Cc1cnc(Nc2ccc(CN3CCN(C)CC3)cc2)nc1-c1ccc(F)c(Cl)c1 [Compound 14]	7750	730	4270	14400	–	–
CN1CCN(Cc2ccc(Nc3ncc(Cl)c(Nc4ccccc4S(=O)(=O)N4CCCC4)n3)cc2)CC1 [Compound 1]	34	20	2	47	121	2
CN1CCN(Cc2ccc(Nc3ncc(Cl)c(Nc4ccccc4C(=O)N(C)C)n3)cc2)CC1 [Compound 7]	142	88	70	95	57	19

— US8901120B2, “Substituted N-phenylpyrimidin-2-amine analogs as inhibitors of the Axl kinase” (University of Utah Research Foundation, priority 2011, dated 2014)
